From ChEMBL document CHEMBL1139487, “Discovery of corticotropin releasing factor 2 receptor selective sauvagine analogues for treatment of skeletal muscle atrophy” (J Med Chem, 2005)

Legend:
[1] = biological target: T1, Corticotropin-releasing factor receptor 1 (Mus musculus, UniProt P35347); assay: In vitro effective concentration for mouse corticotropin releasing factor 1 receptor
T1 sequence (P35347 whole entry): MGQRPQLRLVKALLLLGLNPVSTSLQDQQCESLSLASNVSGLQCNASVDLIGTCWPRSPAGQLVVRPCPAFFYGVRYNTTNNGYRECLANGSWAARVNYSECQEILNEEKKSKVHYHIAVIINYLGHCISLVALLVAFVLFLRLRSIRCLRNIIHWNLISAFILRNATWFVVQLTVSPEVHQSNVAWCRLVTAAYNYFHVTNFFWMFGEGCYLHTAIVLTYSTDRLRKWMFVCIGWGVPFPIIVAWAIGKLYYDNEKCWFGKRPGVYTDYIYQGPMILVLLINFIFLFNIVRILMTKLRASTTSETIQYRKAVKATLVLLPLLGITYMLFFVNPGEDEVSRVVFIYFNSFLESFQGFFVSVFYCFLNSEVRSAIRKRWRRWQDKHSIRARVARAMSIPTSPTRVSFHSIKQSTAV

[2] = biological target: Corticotropin-releasing factor receptor 2 (Mus musculus, UniProt Q60748); assay: In vitro effective concentration for mouse corticotropin releasing factor 2 receptor
[3] = biological target: T2, Corticotropin-releasing factor receptor 1 (Mus musculus) (UniProt P35347); assay: In vitro agonistic activity against mouse corticotropin releasing factor 1 receptor; format: functional
T2 sequence (whole entry): T1 sequence (P35347 whole entry)

[4] = biological target: Corticotropin-releasing factor receptor 2 (Mus musculus) (UniProt Q60748); assay: In vitro agonistic activity against mouse corticotropin releasing factor 2 receptor; format: functional
[5] = organism: Mus musculus; assay: Selectivity ratio of EC50s for mouse corticotropin releasing factor receptors 1 and 2

Corticotropin-releasing factor receptor 2 (Mus musculus), sequence (Q60748 whole entry): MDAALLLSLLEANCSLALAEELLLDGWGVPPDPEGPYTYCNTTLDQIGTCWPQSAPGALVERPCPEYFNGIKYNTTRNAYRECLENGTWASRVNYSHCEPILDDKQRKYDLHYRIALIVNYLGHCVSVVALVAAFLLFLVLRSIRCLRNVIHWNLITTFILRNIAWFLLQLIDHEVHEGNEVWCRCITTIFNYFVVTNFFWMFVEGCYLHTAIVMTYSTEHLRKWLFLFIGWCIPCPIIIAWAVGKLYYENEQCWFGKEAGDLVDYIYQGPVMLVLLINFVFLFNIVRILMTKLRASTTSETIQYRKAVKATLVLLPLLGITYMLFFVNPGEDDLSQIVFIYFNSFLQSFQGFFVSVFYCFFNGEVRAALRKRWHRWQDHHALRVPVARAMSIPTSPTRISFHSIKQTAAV
Corticotropin-releasing factor receptor 2, sequence (Q60748 whole entry): as above

Structure (SMILES) | EC50 [1] | EC50 [2] | Emax [3] | Emax [4] | Selectivity [5]
CC[C@H](C)[C@H](NC(=O)[C@@H](NC(=O)[C@H](CC(=O)O)NC(=O)[C@H](CC(C)C)NC(=O)[C@H](CC(C)C)NC(=O)[C@H](CC(C)C)NC(=O)[C@H](CCCN=C(N)N)NC(=O)[C@H](CC(N)=O)NC(=O)[C@H](CC(N)=O)NC(=O)[C@H](C)NC(=O)[C@H](C)NC(=O)[C@H](CCC(N)=O)NC(=O)[C@H](CCC(N)=O)NC(=O)[C@H](CCCCN)NC(=O)[C@H](CCC(=O)O)NC(=O)[C@H](CCCCN)NC(=O)[C@H](CCC(=O)O)NC(=O)[C@H](CCC(N)=O)NC(=O)[C@H](CCCCN)NC(=O)[C@H](CCC(=O)O)NC(=O)[C@@H](NC(=O)[C@H](CCC(=O)O)NC(=O)[C@@H](NC(=O)[C@H](CCSC)NC(=O)[C@H](CCCCN)NC(=O)[C@H](CCCN=C(N)N)NC(=O)[C@H](CC(C)C)NC(=O)[C@H](CC(C)C)NC(=O)[C@H](CC(C)C)NC(=O)[C@H](CCC(N)=O)NC(=O)[C@@H]1CCCN1C(=O)[C@H](CC(C)C)NC(=O)[C@H](CC(=O)O)NC(=O)[C@@H](NC(=O)[C@H](CO)NC(=O)[C@@H](NC(=O)[C@@H]1CCCN1C(=O)[C@@H]1CCCN1C(=O)CNC(=O)[C@@H]1CCC(=O)N1)[C@@H](C)CC)[C@@H](C)CC)[C@@H](C)CC)[C@@H](C)CC)[C@@H](C)O)C(=O)O | 447 nM | 27.6 nM | 96% | 93% | 16
CC[C@H](C)[C@H](NC(=O)[C@@H](NC(=O)[C@H](CC(=O)O)NC(=O)[C@H](CC(C)C)NC(=O)[C@H](CC(C)C)NC(=O)[C@H](CC(C)C)NC(=O)[C@H](CCCN=C(N)N)NC(=O)[C@H](CC(N)=O)NC(=O)[C@H](CC(N)=O)NC(=O)[C@H](C)NC(=O)[C@H](C)NC(=O)[C@H](CCC(N)=O)NC(=O)[C@H](CCC(N)=O)NC(=O)[C@H](CCCCN)NC(=O)[C@H](CCC(=O)O)NC(=O)[C@H](CCCCN)NC(=O)[C@H](CCC(=O)O)NC(=O)[C@H](CCC(N)=O)NC(=O)[C@H](CCCCN)NC(=O)[C@H](CCC(=O)O)NC(=O)[C@@H](NC(=O)[C@H](CCC(=O)O)NC(=O)[C@@H](NC(=O)[C@H](CCSC)NC(=O)[C@H](CCCCN)NC(=O)[C@H](CCCN=C(N)N)NC(=O)[C@H](CC(C)C)NC(=O)[C@H](CC(C)C)NC(=O)[C@@H](NC(=O)[C@H](Cc1ccc(O)cc1)NC(=O)[C@@H]1CCCN1C(=O)[C@H](CC(C)C)NC(=O)[C@H](CC(=O)O)NC(=O)[C@@H](NC(=O)[C@H](CO)NC(=O)[C@@H](NC(=O)[C@@H]1CCCN1C(=O)[C@@H]1CCCN1C(=O)CNC(=O)[C@@H]1CCC(=O)N1)[C@@H](C)CC)[C@@H](C)CC)C(C)C)[C@@H](C)CC)[C@@H](C)CC)[C@@H](C)O)C(=O)O | 100 nM | 5 nM | 80% | 100% | 20
CC[C@H](C)[C@H](NC(=O)[C@@H](NC(=O)[C@H](CC(=O)O)NC(=O)[C@H](CC(C)C)NC(=O)[C@H](CC(C)C)NC(=O)[C@H](CC(C)C)NC(=O)[C@H](CCCN=C(N)N)NC(=O)[C@H](CC(N)=O)NC(=O)[C@H](CC(N)=O)NC(=O)[C@H](C)NC(=O)[C@H](C)NC(=O)[C@H](CCC(N)=O)NC(=O)[C@H](CCC(N)=O)NC(=O)[C@H](CCCCN)NC(=O)[C@H](CCC(=O)O)NC(=O)[C@H](CCCCN)NC(=O)[C@H](CCC(=O)O)NC(=O)[C@H](CCC(N)=O)NC(=O)[C@H](CCCCN)NC(=O)[C@H](CCC(=O)O)NC(=O)[C@@H](NC(=O)[C@H](CCC(=O)O)NC(=O)[C@@H](NC(=O)[C@H](CCSC)NC(=O)[C@H](CCCCN)NC(=O)[C@H](CCCN=C(N)N)NC(=O)[C@H](CC(C)C)NC(=O)[C@H](CC(C)C)NC(=O)[C@@H](NC(=O)[C@H](CC(C)C)NC(=O)[C@@H]1CCCN1C(=O)[C@H](CC(C)C)NC(=O)[C@H](CC(=O)O)NC(=O)[C@@H](NC(=O)[C@H](CO)NC(=O)[C@@H](NC(=O)[C@@H]1CCCN1C(=O)[C@@H]1CCCN1C(=O)CNC(=O)[C@@H]1CCC(=O)N1)[C@@H](C)CC)[C@@H](C)CC)[C@@H](C)CC)[C@@H](C)CC)[C@@H](C)CC)[C@@H](C)O)C(=O)O | 106 nM | 5 nM | 94% | 96% | 21

Results, then the compound that gave them:

EC50 [1] | EC50 [2] | Emax [3] | Emax [4] | Selectivity [5] | Structure (SMILES)
384 nM | 9.4 nM | 95% | 100% | 41 | CC[C@H](C)[C@H](NC(=O)[C@@H](NC(=O)[C@H](CC(=O)O)NC(=O)[C@H](CC(C)C)NC(=O)[C@H](CC(C)C)NC(=O)[C@H](CC(C)C)NC(=O)[C@H](CCCN=C(N)N)NC(=O)[C@H](CC(N)=O)NC(=O)[C@H](CC(N)=O)NC(=O)[C@H](C)NC(=O)[C@H](C)NC(=O)[C@H](CCC(N)=O)NC(=O)[C@H](CCC(N)=O)NC(=O)[C@H](CCCCN)NC(=O)[C@H](CCC(=O)O)NC(=O)[C@H](CCCCN)NC(=O)[C@H](CCC(=O)O)NC(=O)[C@H](CCC(N)=O)NC(=O)[C@H](CCCCN)NC(=O)[C@H](CCC(=O)O)NC(=O)[C@@H](NC(=O)[C@H](CCC(=O)O)NC(=O)[C@@H](NC(=O)[C@H](CCSC)NC(=O)[C@H](CCCCN)NC(=O)[C@H](CCCN=C(N)N)NC(=O)[C@H](CC(C)C)NC(=O)[C@H](CC(C)C)NC(=O)[C@H](Cc1ccccc1)NC(=O)[C@H](C)NC(=O)[C@@H]1CCCN1C(=O)[C@H](CC(C)C)NC(=O)[C@H](CC(=O)O)NC(=O)[C@@H](NC(=O)[C@H](CO)NC(=O)[C@@H](NC(=O)[C@@H]1CCCN1C(=O)[C@@H]1CCCN1C(=O)CNC(=O)[C@@H]1CCC(=O)N1)[C@@H](C)CC)[C@@H](C)CC)[C@@H](C)CC)[C@@H](C)CC)[C@@H](C)O)C(=O)O
80.9 nM | 7.8 nM | 100% | 98% | 10 | CC[C@H](C)[C@H](NC(=O)[C@@H](NC(=O)[C@H](CC(=O)O)NC(=O)[C@H](CC(C)C)NC(=O)[C@H](CC(C)C)NC(=O)[C@H](CC(C)C)NC(=O)[C@H](CCCN=C(N)N)NC(=O)[C@H](CC(N)=O)NC(=O)[C@H](CC(N)=O)NC(=O)[C@H](C)NC(=O)[C@H](C)NC(=O)[C@H](CCC(N)=O)NC(=O)[C@H](CCC(N)=O)NC(=O)[C@H](CCCCN)NC(=O)[C@H](CCC(=O)O)NC(=O)[C@H](CCCCN)NC(=O)[C@H](CCC(=O)O)NC(=O)[C@H](CCC(N)=O)NC(=O)[C@H](CCCCN)NC(=O)[C@H](CCC(=O)O)NC(=O)[C@@H](NC(=O)[C@H](CCC(=O)O)NC(=O)[C@@H](NC(=O)[C@H](CCSC)NC(=O)[C@H](CCCCN)NC(=O)[C@H](CCCN=C(N)N)NC(=O)[C@H](CC(C)C)NC(=O)[C@H](CC(C)C)NC(=O)[C@H](Cc1ccccc1)NC(=O)[C@H](Cc1c[nH]cn1)NC(=O)[C@@H]1CCCN1C(=O)[C@H](CC(C)C)NC(=O)[C@H](CC(=O)O)NC(=O)[C@@H](NC(=O)[C@H](CO)NC(=O)[C@@H](NC(=O)[C@@H]1CCCN1C(=O)[C@@H]1CCCN1C(=O)CNC(=O)[C@@H]1CCC(=O)N1)[C@@H](C)CC)[C@@H](C)CC)[C@@H](C)CC)[C@@H](C)CC)[C@@H](C)O)C(=O)O
756 nM | 12.8 nM | 83% | 100% | 59 | CC[C@H](C)[C@H](NC(=O)[C@@H](NC(=O)[C@H](CC(=O)O)NC(=O)[C@H](CC(C)C)NC(=O)[C@H](CC(C)C)NC(=O)[C@H](CC(C)C)NC(=O)[C@H](CCCN=C(N)N)NC(=O)[C@H](CC(N)=O)NC(=O)[C@H](CC(N)=O)NC(=O)[C@H](C)NC(=O)[C@H](C)NC(=O)[C@H](CCC(N)=O)NC(=O)[C@H](CCC(N)=O)NC(=O)[C@H](CCCCN)NC(=O)[C@H](CCC(=O)O)NC(=O)[C@H](CCCCN)NC(=O)[C@H](CCC(=O)O)NC(=O)[C@H](CCC(N)=O)NC(=O)[C@H](CCCCN)NC(=O)[C@H](CCC(=O)O)NC(=O)[C@@H](NC(=O)[C@H](CCC(=O)O)NC(=O)[C@@H](NC(=O)[C@H](CCSC)NC(=O)[C@H](CCCCN)NC(=O)[C@H](CCCN=C(N)N)NC(=O)[C@H](CC(C)C)NC(=O)[C@H](CC(C)C)NC(=O)[C@H](Cc1ccccc1)NC(=O)[C@@H](NC(=O)[C@@H]1CCCN1C(=O)[C@H](CC(C)C)NC(=O)[C@H](CC(=O)O)NC(=O)[C@@H](NC(=O)[C@H](CO)NC(=O)[C@@H](NC(=O)[C@@H]1CCCN1C(=O)[C@@H]1CCCN1C(=O)CNC(=O)[C@@H]1CCC(=O)N1)[C@@H](C)CC)[C@@H](C)CC)[C@@H](C)CC)[C@@H](C)CC)[C@@H](C)CC)[C@@H](C)O)C(=O)O
943 nM | 19.2 nM | 64% | 87% | 49 | CC[C@H](C)[C@H](NC(=O)[C@@H](NC(=O)[C@H](CC(=O)O)NC(=O)[C@H](CC(C)C)NC(=O)[C@H](CC(C)C)NC(=O)[C@H](CC(C)C)NC(=O)[C@H](CCCN=C(N)N)NC(=O)[C@H](CC(N)=O)NC(=O)[C@H](CC(N)=O)NC(=O)[C@H](C)NC(=O)[C@H](C)NC(=O)[C@H](CCC(N)=O)NC(=O)[C@H](CCC(N)=O)NC(=O)[C@H](CCCCN)NC(=O)[C@H](CCC(=O)O)NC(=O)[C@H](CCCCN)NC(=O)[C@H](CCC(=O)O)NC(=O)[C@H](CCC(N)=O)NC(=O)[C@H](CCCCN)NC(=O)[C@H](CCC(=O)O)NC(=O)[C@@H](NC(=O)[C@H](CCC(=O)O)NC(=O)[C@@H](NC(=O)[C@H](CCSC)NC(=O)[C@H](CCCCN)NC(=O)[C@H](CCCN=C(N)N)NC(=O)[C@H](CC(C)C)NC(=O)[C@H](CC(C)C)NC(=O)[C@H](Cc1ccccc1)NC(=O)[C@@H](NC(=O)[C@@H]1CCCN1C(=O)[C@H](CC(C)C)NC(=O)[C@H](CC(=O)O)NC(=O)[C@@H](NC(=O)[C@H](CO)NC(=O)[C@@H](NC(=O)[C@@H]1CCCN1C(=O)[C@@H]1CCCN1C(=O)CNC(=O)[C@@H]1CCC(=O)N1)[C@@H](C)CC)[C@@H](C)CC)[C@@H](C)O)[C@@H](C)CC)[C@@H](C)CC)[C@@H](C)O)C(=O)O
